# Assay results as given in patent publication US20190060249A1 (priority 2017, published 2019).
# Legend:
# ALDH5A1 = target: T1, ALDH5A1 (Homo sapiens, UniProt P51649); assay: ALDH enzymatic assay, recombinant ALDH5A1; type: biochemical; conditions: 5 μg/ml recombinant enzyme, 10 mM acetaldehyde, 20 μM Alda-341
# T1 sequence (P51649 48-535): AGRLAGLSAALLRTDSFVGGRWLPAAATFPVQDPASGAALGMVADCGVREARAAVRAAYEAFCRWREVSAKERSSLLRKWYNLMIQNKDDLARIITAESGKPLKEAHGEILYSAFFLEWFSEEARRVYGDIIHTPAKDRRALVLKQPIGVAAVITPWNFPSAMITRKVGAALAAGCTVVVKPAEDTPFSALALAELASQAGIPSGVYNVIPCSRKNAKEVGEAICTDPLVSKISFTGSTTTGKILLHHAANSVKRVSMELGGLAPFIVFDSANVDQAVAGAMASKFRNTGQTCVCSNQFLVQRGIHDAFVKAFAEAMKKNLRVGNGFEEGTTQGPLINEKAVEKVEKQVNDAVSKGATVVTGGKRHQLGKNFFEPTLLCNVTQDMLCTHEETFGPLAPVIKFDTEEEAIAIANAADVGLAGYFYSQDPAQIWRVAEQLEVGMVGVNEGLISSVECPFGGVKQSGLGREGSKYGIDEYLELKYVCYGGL
# Method: ALDH enzymatic assay: ALDH1A1, ALDH1A2, 2, 3A1, 3A2, 4A1, 5A1, 7A1 were measured as previously described using 5 μg/ml of recombinant protein (Chen, C. H., Cruz, L. A., and Mochly-Rosen, D. (2015) Pharmacological recruitment of aldehyde dehydrogenase 3A1 (ALDH3A1) to assist ALDH2 in acetaldehyde and ethanol metabolism in vivo. Proceedings of the National Academy of Sciences of the United States of America 112, 3074-3079). […] Assays were conducted in 50 mM NaPPi buffer (pH 7.4) in the presence of 2.5 mM NAD^+ and 10 mM substrate and measured in triplicate at 25° C. Dose response curve fits and EC50's were calculated using GraphPad Prism 7 software.
# [1] = system: mouse model of radiation-induced hyposalivation; assay: Mouse model of radiation-induced hyposalivation; type: in vivo
# From the text: In one experiment, mice were irradiated with a single dose of 15 Gy and in a second experiment with 6 Gy/d for 5 d for a total of 30 Gy. […] Starting 8 weeks after radiation, the control and treatment groups were further segmented into four groups.
# On day 5 of the 30 Gy radiation dose, SMG were removed, fixed, and stained for cleaved caspase 3 to determine the extent of apoptosis (FIG. 4E).
# Saliva collection: Female C57/BL-6 mice, 8-10 weeks old, were ordered from Jackson Labs. […] 15 Gy single dose or 30 Gy fractionated over 5 d (6 Gy/d) were delivered to the SMG with the rest of the body lead shielded. Stimulated saliva was measured as described in, Lombaert, I. M., Brunsting, J. F., Wierenga, P. K., Faber, H., Stokman, M. A., Kok, T., Visser, W. H., Kampinga, H. H., de Haan, G., and Coppes, R. P. (2008) Rescue of salivary gland function after stem cell transplantation in irradiated glands. PloS one 3, e2063. Mice were anesthetized with a ketamine (80 mg/kg) and xylazine (16 mg/kg) mixture delivered by intraperitoneal injection and subcutaneously injected with 2 mg/kg pilocarpine. Saliva was collected for 15 minutes. Saliva volume was calculated by assuming […] and was normalized to the mouse body weight by dividing the total collected saliva volume by the mass of the mouse (kg).
# Periodic acid schiff staining and acinar quantification: SMG were removed from mice, fixed in 10% formalin for 24 h, and paraffin-embedded. 10 images per group were taken at random at 30× magnification using a Leica DM6000 B microscope. Acinar regions were quantified using RT_Image software (Graves, E. E., Quon, A., and Loo, B. W., Jr. (2007) RT_Image: an open-source tool for investigating PET in radiation oncology. Technology in cancer research & treatment 6, 111-121). Images were separated into red, green, and blue color channels, blurred using a 20 pixel box filter, and segmented using an intensity contour of 110 with a minimum area of 100 um^2. Acinar area was calculated as a percentage of acinar area relative to the area of the microscopy field.
# Cleaved caspase 3 staining: SMG were removed from mice, fixed in 10% formalin for 24 h, and paraffin-embedded. Sections were stained with Caspase 3 rabbit antibody (Cell Signaling, 9664), 1:200 dilution, and DAPI. Three random images using red and blue filters were taken at 100× magnification with a Leica DM6000 B microscope from each gland (6-8 glands/group) and quantified by counting cleaved caspase-3 positive (red) cells per field.
# RNA-sequencing: Samples were extracted using Qiagen miRNeasy Kit (217084). Extracted samples were assessed for quality using Agilent Pico-RNA bio-analyzer chip (5067-1513). The Smarter Ultra Low Input RNA kit (Clontech, 634848) was used to generate cDNA from total RNA. Amplified cDNA was purified using SPRI Ampure Beads from Beckman Coulter, and quality and quantity were measured using a High Sensitivity DNA chip on an Agilent 2100 Bioanalyzer. cDNA was sheared to an average length of 300 BP using a Covaris S2, and libraries were generated following the Clontech Low Input Library Prep kit (634947). Indexed libraries were pooled and quantitated for sequencing. Sequencing data was generated on an Illumina HiSeq 4000. The processed RNAseq reads were imported into BRB-ArrayTools, an integrated package for the visualization and statistical analysis of gene expression data developed by Dr. Richard Simon and BRB-ArrayTools Development Team. The imported expression values were log2-transformed and subjected to quantile normalization by Robust Multi-chip Average (RMA). Genes that show differential expression between those untreated and irradiated (univariate p-value <0.01) were selected. To identify functional networks and pathways enriched in these significant genes, these genes were analyzed using MetaCore™. For heatmap generation the Clustering function of ArrayTools was used, with experimental samples in fixed grouping and order, and genes ordered by hierarchical clustering.
# [2] = EpCAM+ cells isolated from SMG 2 weeks after 30 Gy
smiles,measurement,setting,value
"C=C(C)[C@H]1CC=C(C)CC1 [Alda-341, D-limonene]",catalytic activity of ALDH5A1,ALDH5A1,did not increase
same,saliva production after radiation,"[1]; 10% Alda-341 in chow from 1 w prior to radiation and continuously after, single 15 Gy or 30 Gy (6 Gy/d for 5 d)",retained near baseline saliva production levels
same,"saliva production, Alda-341 stopped","[1]; Alda-341 from 24 h after radiation, stopped 8 weeks after radiation",rapid decline in saliva production
same,"saliva levels, continuous Alda-341","[1]; Alda-341 starting 24 h after the final dose of radiation, continuous, 20 weeks",sustained significantly higher saliva levels over 20 weeks
same,"saliva production, Alda-341 begun late",[1]; Alda-341 treatment begun 8 weeks after radiation,did not show significant improvement in saliva production
same,apoptotic-related gene expression (RNA-sequencing),[1]; [2],a decrease in apoptotic-related gene expression
same,glutathione metabolism (RNA-sequencing),[1]; [2],increased glutathione metabolism
same,immune response (RNA-sequencing),[1]; [2],decreased immune response
same,more acinar cell preservation (PAS staining) vs group that never received Alda-341,"[1]; after 20 weeks, continuous Alda-341",~70%
same,improvement in sphere-forming ability of dissociated SMG vs no treatment,[1]; continuous Alda-341 after radiation,~30 fold
same,number of apoptotic cells (cleaved caspase 3 staining),"[1]; day 5 of the 30 Gy radiation dose, Alda-341 before radiation",reduced the number of apoptotic cells to near non-irradiated levels
same,preservation of acinar area,"[1]; eight weeks after 30 Gy, Alda-341 from 1 w prior to radiation",90%
